Calls of active or inactive are those of the source.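 How the source made its calls: active means IC50 at or below a set limit above the highest tested dose; inconclusive means flat curve with 30 to 70% inhibition, or poor fit; inactive means the rest.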
Target: Glycogen synthase kinase-3 beta (Homo sapiens) (UniProt P49841)
Assay: GSK3beta kinase inhibitor potency, dose response, biochemical, luminescence, cell-free homogeneous, retest (AID 434954)
Settings: recombinant GSK3beta, ADP-Glo luminescence, 60 min

Sequence of Glycogen synthase kinase-3 beta (Homo sapiens) (P49841 whole entry, looked up): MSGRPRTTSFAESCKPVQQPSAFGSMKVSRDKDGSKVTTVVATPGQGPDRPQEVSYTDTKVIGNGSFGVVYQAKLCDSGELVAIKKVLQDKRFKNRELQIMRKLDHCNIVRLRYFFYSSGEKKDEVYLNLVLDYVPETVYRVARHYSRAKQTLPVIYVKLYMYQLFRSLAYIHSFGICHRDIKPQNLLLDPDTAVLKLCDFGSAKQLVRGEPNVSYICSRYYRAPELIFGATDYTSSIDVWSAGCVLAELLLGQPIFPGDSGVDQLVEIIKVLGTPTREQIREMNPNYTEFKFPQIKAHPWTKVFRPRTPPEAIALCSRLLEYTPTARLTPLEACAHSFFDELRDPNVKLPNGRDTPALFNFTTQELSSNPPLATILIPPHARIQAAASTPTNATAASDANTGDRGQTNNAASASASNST

SMILES | IC50
Cc1c(C#N)c(O)[nH]c(=O)c1N=Nc1ccc(S(N)(=O)=O)cc1 | 0.917 µM
O=C(O)c1ccccc1N/N=C\c1ccnc2ccccc12 | > 30 µM (inactive)
Nc1nc(F)nc2c1ncn2[C@@H]1O[C@H](CO)[C@@H](O)[C@H]1O | > 30 µM (inactive)
CCc1ccccc1N1C(=O)CC(N2CCc3ccccc32)C1=O (stereo unspecified) | > 30 µM (inactive)
O=C1CC(c2c[nH]c3ccccc23)C(=O)N1c1ccccc1 (stereo unspecified) | > 30 µM (inactive)
C(=N\Nc1nccc(-c2cccnc2)n1)/c1ccccc1 | 16.9 µM
CN(C)C=NC(=O)/C(C#N)=C1\CCc2ccccc2N1 | 20.1 µM
COc1cc(/C=N/NC(=O)c2ccc(O)cc2)ccc1Oc1ccc([N+](=O)[O-])cn1 | > 30 µM (inactive)
COc1ccc(-c2nn(-c3ccccc3)cc2/C=N/Nc2ccc(Cl)c(C(=O)O)c2)cc1OC | > 30 µM (inactive)
COc1ccc(-c2nn(-c3ccccc3)cc2/C=N/N2C(=O)CSC2=S)cc1 | > 30 µM (inactive)
CCc1ccc(C2NC(=S)NC3=C2C(=O)CC(C)(C)C3)cc1 (stereo unspecified) | > 30 µM (inactive)
CSc1nc2c(c(=O)[nH]1)C(c1ccccc1)C1=C(CC(C)(C)CC1=O)N2 (stereo unspecified) | > 30 µM (inactive)
C(=N\Nc1ncnc2nc[nH]c12)/c1cccs1 | 19.7 µM
COc1ccc(-c2nn(-c3ccccc3)cc2/C=N/Nc2ccc3ccccc3n2)cc1OC | > 30 µM (inactive)
CSc1nc2n(n1)C(c1cccs1)C1=C(CCCC1=O)N2 (stereo unspecified) | > 30 µM (inactive)
COCCOC(=O)C1=C(C)Nc2ncnn2C1c1ccccc1 (stereo unspecified) | > 30 µM (inactive)
O=C1CCCC2=C1C(c1cccs1)n1ncnc1N2 (stereo unspecified) | > 30 µM (inactive)
COc1cc(-c2[nH]nc3c2C(c2ccco2)C(C#N)=C(N)O3)cc(OC)c1OC (stereo unspecified) | 8.59 µM

SMILES | IC50
Cc1nn(-c2ccccn2)c2c1C(c1ccncc1)C1=C(CC(C)(C)CC1=O)N2 (stereo unspecified) | > 30 µM (inactive)
CCCC1=C(C(=O)OCC)C(c2cccs2)n2ncnc2N1 (stereo unspecified) | 23.2 µM
COc1ccc(-c2nn(-c3ccccc3)cc2/C=N/O)cc1 | 0.432 µM
COc1cccc(C2C(C(=O)OCc3ccccc3)=C(C)Nc3ncnn32)c1OC (stereo unspecified) | 3.82 µM
CCOc1ccc(/C=C2/C(=N)N3OC(C)=CC3=NC2=O)cc1OC | > 30 µM (inactive)
O=[N+]([O-])c1cc(/C=N\O)ccc1Oc1ccc(F)cc1 | 23 µM
Cc1ccc(-c2nn(-c3ccccc3)cc2/C=N/O)cc1 | 0.565 µM
N#Cc1c(N)nc2c3c(sc(=N)c2c1N)NC(=O)CC3c1ccccc1 (stereo unspecified) | > 30 µM (inactive)
CC1(C)CC(=O)C2=C(C1)Nc1[nH]c(=S)[nH]c(=O)c1C2c1ccccc1 (stereo unspecified) | > 30 µM (inactive)
Cc1nn(-c2ccccn2)c2c1C(c1ccsc1)C1=C(CCCC1=O)N2 (stereo unspecified) | > 30 µM (inactive)
Cc1ccc(/C=N/Nc2ncnc3nc[nH]c23)cc1 | 30.1 µM
CCOC(=O)C1=C(C)Nc2ncnn2C1c1ccc2c(c1)OCO2 (stereo unspecified) | > 30 µM (inactive)
Cc1cccc(N=Nc2c(C)c(C#N)c(O)[nH]c2=O)c1 | 0.775 µM
COc1cc(C2C(C(=O)c3cccs3)=C(O)C(=O)N2CCN2CCOCC2)ccc1OCCC(C)C (stereo unspecified) | > 30 µM (inactive)
CC(C)n1c(O)c(C=NCc2cccnc2)c(=O)[nH]c1=S | > 30 µM (inactive)
COc1ccc(OC)c(N=c2oc3cc(O)ccc3cc2C(N)=O)c1 | 11.9 µM
CCOC(=O)C1=C(C)Nc2ncnn2C1c1c[nH]c2ccccc12 (stereo unspecified) | 4.64 µM
COc1cc(/C=N/O)ccc1OCc1ccccc1Cl | > 30 µM (inactive)

— PubChem BioAssay AID434954 (Broad Institute, 2010)
